From the supplement of paper PMC10307832

Legend:
Test in all cases: relative viability (nuclei count vs DMSO), 5 days (fraction); higher = more cells survive
[1] = compound: CCC1=CN=CN=C1N2CCN(CC2)CC3=NC4=C(N3)C=C(C=C4)C(F)(F)F + COc1cc2c(Oc3ccc(NC(=O)C4(C(=O)Nc5ccc(F)cc5)CC4)cc3F)ccnc2cc1OCCCN1CCOCC1 [Foretinib] (partner 0.25 µM)
Outline: (§1)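 Relative viability divides the nuclei count in treated wells by that in vehicle wells. Lung cancer cell lines were seeded in 1536-well plates, dosed by pin tool the next day, and fixed and stained after 5 days in one step with final 0.05% Triton X-100, 1% formaldehyde and 1 ug/ml Hoechst. Dosing was a single drug or a fixed anchor-drug dose plus five library-drug doses (not always all listed) in √10 steps, and values are medians of duplicate plates imaged at 4×.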

Mirin + Trametinib = compound: N=C1NC(=O)/C(=C/c2ccc(O)cc2)S1 [Mirin] + CC(=O)Nc1cccc(-n2c(=O)n(C3CC3)c(=O)c3c(Nc4ccc(I)cc4F)n(C)c(=O)c(C)c32)c1 [Trametinib] (partner 0.02 µM)
Outline: as §1

[2] = compound: CCn1c(-c2nonc2N)nc2cnc(Oc3cccc(NC(=O)c4ccc(OCCN5CCOCC5)cc4)c3)cc21 + Cc1nc(NC(=O)N2CCC[C@H]2C(N)=O)sc1-c1ccnc(C(C)(C)C(F)(F)F)c1 [Alpelisib] (partner 2 µM)
Outline: as §1

[3] = compound: CCn1c(-c2nonc2N)nc2cnc(Oc3cccc(NC(=O)c4ccc(OCCN5CCOCC5)cc4)c3)cc21 + CC1(C)CCC(c2ccc(Cl)cc2)=C(CN2CCN(c3ccc(C(=O)NS(=O)(=O)c4ccc(N[C@H](CCN5CCOCC5)CSc5ccccc5)c(S(=O)(=O)C(F)(F)F)c4)cc3)CC2)C1 [Navitoclax] (partner 0.5 µM)
Outline: as §1

Row | Cell Line | relative viability ([1]; first compound 0.04 µM) | relative viability ([1]; first compound 0.1265 µM) | relative viability ([1]; first compound 0.4 µM) | relative viability ([1]; first compound 1.265 µM) | relative viability ([1]; first compound 4 µM) | relative viability (Mirin + Trametinib; first compound 0.25 µM) | relative viability (Mirin + Trametinib; first compound 0.7906 µM) | relative viability (Mirin + Trametinib; first compound 2.5 µM) | relative viability (Mirin + Trametinib; first compound 7.906 µM) | relative viability (Mirin + Trametinib; first compound 25 µM) | relative viability ([2]; first compound 0.04 µM) | relative viability ([2]; first compound 0.1265 µM) | relative viability ([2]; first compound 0.4 µM) | relative viability ([2]; first compound 1.265 µM) | relative viability ([2]; first compound 4 µM) | relative viability ([3]; first compound 0.04 µM) | relative viability ([3]; first compound 0.1265 µM) | relative viability ([3]; first compound 0.4 µM) | relative viability ([3]; first compound 1.265 µM) | relative viability ([3]; first compound 4 µM)
1 | 201T | 1.21 | 1.07 | 1.09 | 1.02 | 1.07 | 0.739 | 0.74 | 0.77 | 0.796 | 0.857 | 1.02 | 1.01 | 0.966 | 1.05 | 0.954 | 1.16 | 1.19 | 1.18 | 1.21 | 1.14
2 | A549 | 0.851 | 0.903 | 0.937 | 0.816 | 0.905 |  |  |  |  |  | 0.986 | 0.785 | 0.426 | 0.23 | 0.0785 | 1.37 | 1.08 | 0.828 | 0.0937 | 0.0515
3 | A-427 | 1.03 | 1.11 | 1.03 | 0.959 | 0.534 | 0.734 | 0.647 | 0.718 | 0.677 | 0.706 | 1.22 | 1.13 | 1.04 | 1.1 | 0.998 | 1.04 | 1.07 | 0.887 | 0.964 | 1.01
4 | ABC-1 | 1.32 | 1.05 | 1.12 | 1.24 | 0.886 |  |  |  |  |  | 1.35 | 0.691 | 0.877 | 0.877 | 0.487 |  |  |  |  | 
5 | BEN | 0.368 | 0.522 | 0.527 | 0.343 | 0.374 | 0.942 | 1.01 | 1.16 | 0.825 | 0.591 | 1.06 | 1.03 | 0.787 | 0.326 | 0.329 | 0.0536 | 0.0704 | 0.0589 | 0.0468 | 0.0489
6 | CAL-12T | 1.08 | 1.1 | 1.07 | 1.12 | 0.968 | 0.336 | 0.373 | 0.405 | 0.357 | 0.32 | 1.75 | 1.49 | 1.51 | 1.23 | 0.786 | 1.83 | 1.46 | 1.61 | 1.35 | 0.955
7 | COR-L23 | 0.925 | 0.861 | 0.986 | 0.918 | 0.897 | 0.559 | 0.522 | 0.56 | 0.345 | 0.652 | 0.681 | 0.647 | 0.446 | 0.154 | 0.159 | 1.04 | 0.817 | 0.59 | 0.172 | 0.157
8 | COR-L 105 | 1.25 | 0.941 | 1.04 | 0.941 | 1.16 | 0.428 | 0.482 | 0.431 | 0.449 | 0.451 | 1.08 | 0.694 | 0.938 | 0.596 | 0.459 | 0.618 | 0.762 | 0.522 | 0.262 | 0.355
9 | Calu-6 | 0.91 | 0.841 | 0.889 | 0.807 | 0.782 |  |  |  |  |  | 0.861 | 0.827 | 0.582 | 0.477 | 0.455 | 0.835 | 0.759 | 0.64 | 0.353 | 0.306
10 | ChaGo-K-1 | 1.02 | 0.992 | 0.794 | 0.814 | 0.891 | 0.833 | 0.836 | 0.94 | 0.756 | 0.677 |  |  |  |  |  | 1.42 | 0.876 | 0.762 |  | 0.712
11 | EBC-1 | 0.107 | 0.0909 | 0.0948 | 0.0919 | 0.112 |  |  |  |  |  | 1.02 | 0.767 | 0.678 | 0.733 | 0.557 | 0.519 | 0.341 | 0.429 | 0.323 | 0.261
12 | EKVX | 0.748 | 0.675 | 0.753 |  | 0.779 | 0.373 | 0.246 | 0.382 | 0.35 | 0.376 | 1.16 | 0.83 | 0.883 | 0.764 | 0.837 | 1.13 | 1.01 | 0.861 | 0.895 | 0.831
13 | EMC-BAC-2 | 1 | 0.943 | 1.03 |  | 0.914 | 0.934 | 0.889 | 0.875 | 0.761 | 0.957 | 0.872 | 0.732 | 0.8 | 0.729 | 0.75 | 1.44 | 1.2 | 1.18 | 1.16 | 1.19
14 | EPLC-272H | 0.787 | 0.787 | 0.688 | 0.653 | 0.639 | 0.308 |  | 0.281 | 0.3 | 0.317 | 1.11 | 0.963 | 0.892 | 0.933 | 0.973 | 1.22 | 1.07 | 1.1 | 1.05 | 1.1
15 | H3255 | 0.828 | 0.872 | 0.894 | 0.739 | 0.776 | 0.604 | 0.752 | 0.557 | 0.412 | 0.566 | 1.08 | 0.622 | 0.622 | 0.583 | 0.594 | 0.675 | 0.551 | 0.454 | 0.329 | 0.35
16 | HARA | 0.85 | 0.952 | 0.836 |  | 0.828 | 0.886 |  | 0.795 | 0.674 | 0.523 | 0.831 | 0.797 | 0.756 | 0.395 | 0.485 | 1.19 | 1.02 | 1.09 | 1.18 | 1.14
17 | HCC-15 | 1.02 | 1.01 | 1.03 | 1 | 1.01 | 0.341 | 0.368 | 0.363 | 0.368 | 0.365 | 1.03 | 0.831 | 0.953 | 0.867 | 0.845 | 0.876 | 0.636 | 0.693 | 0.586 | 0.708
18 | HCC-44 |  |  |  |  |  | 0.981 | 1.36 | 1.08 | 1.06 | 1.09 | 0.816 | 0.896 | 0.659 | 0.456 | 0.344 | 0.944 | 1.07 | 1.14 | 1 | 0.963
